Laboratory results as given in patent publication US20250120397A1, “PEST CONTROL METHOD” (National Chung Hsing University, priority 2023, published 2025).

What was measured:
Type in all cases: in vivo
[1] = tested on: mosquito larvae; assay: Mosquito larvae killing in 100 mL deionized water, 24 hours, fatality rate; details: uncovered
Experimental: Artificially raised non-pathogenic mosquito larvae were divided into a plurality of groups each including 30 larvae. Each group of larvae was put into a 1-L container together with 100 mL of deionized water. Then, a reagent containing a spreading agent for agricultural use as well as an isododecane and an isohexadecane in a ratio of 4:1 was added into the deionized water in each container at one of a plurality of predetermined doses and thoroughly mixed. The containers were left uncovered. After 24 hours, the numbers of deaths of the mosquito larvae were counted.

[2] = tested on: Anoplolepis longipes (long-legged ant); assay: 24-hour fumigation in sealed 1-L container, fatality rate
Text: (§1) Sitophilus oryzae (rice weevil), Tetranychus urticae (two-spotted spider mite), Lasioderma serricorne (cigarette beetle), Blattella germanica (German cockroach), Anoplolepis longipes (long-legged ant), and Solenopsis invicta (red imported fire ant) were used as the test objects of this experiment and were each put into several 1-L containers. A carrier containing an isododecane (or 2,2,4,6,6-pentamethylheptane to be exact) at each of a plurality of predetermined concentrations (i.e., 2.5, 5, 10, 20, 30, and 40 mg) was then put into one of the 1-L containers of each test object, before the containers were sealed to start a 24-hour fumigation process. After that, the containers were aerated, and the numbers of deaths of each kind of pests were counted.
(§2) Sitophilus oryzae, Tetranychus urticae, Lasioderma serricorne, Blattella germanica, Anoplolepis longipes, and Solenopsis invicta were each put into several 1-L containers. A carrier containing each of n-dodecane, n-decane, 2-methylnonane (an isodecane), and 2,2,4,6,6-pentamethylheptane (an isododecane) at a concentration of 30 mg was then put into one of the 1-L containers of each test object, before the containers were sealed to start a 24-hour fumigation process. After that, the containers were aerated, and the numbers of deaths of each kind of pests were counted.

[3] = tested on: Sitophilus oryzae (rice weevil); assay: as above
Text: as §1, §2

[4] = tested on: Solenopsis invicta (red imported fire ant); assay: as above
Text: as §1, §2

[5] = tested on: Blattella germanica (German cockroach); assay: as above
Text: as §1, §2

[6] = tested on: Lasioderma serricorne (cigarette beetle); assay: as above
Text: as §1, §2

[7] = tested on: Tetranychus urticae (two-spotted spider mite); assay: as above
Text: as §1, §2

[8] = Table 2: compound at 30 mg in 1-L container

Structure (SMILES): CC(CC(C)(C)C)CC(C)(C)C [2,2,4,6,6-pentamethylheptane]
- Fatality rate (%) of mosquito larvae ([1]; dose 2.5 mg in 100 mL deionized water): 33%
- Fatality rate (%) of mosquito larvae ([1]; dose 5 mg in 100 mL deionized water): 50%
- Fatality rate (%) of mosquito larvae ([1]; dose 10 mg in 100 mL deionized water): 80%
- Fatality rate (%) of mosquito larvae ([1]; dose 20 mg in 100 mL deionized water): 100%
- Fatality rate (%) of mosquito larvae ([1]; dose 40 mg in 100 mL deionized water): 100%
- Fatality rate (%) Anoplolepis longipes [2, 8]: 100%
- Fatality rate (%) Anoplolepis longipes ([2]; dose 2.5 mg in 1-L container): 8%
- Fatality rate (%) Anoplolepis longipes ([2]; dose 5 mg in 1-L container): 14%
- Fatality rate (%) Anoplolepis longipes ([2]; dose 10 mg in 1-L container): 32%
- Fatality rate (%) Anoplolepis longipes ([2]; dose 20 mg in 1-L container): 80%
- Fatality rate (%) Anoplolepis longipes ([2]; dose 30 mg in 1-L container): 100%
- Fatality rate (%) Anoplolepis longipes ([2]; dose 40 mg in 1-L container): 100%
- Fatality rate (%) Sitophilus oryzae [3, 8]: 100%
- Fatality rate (%) Sitophilus oryzae ([3]; dose 2.5 mg in 1-L container): 0%
- Fatality rate (%) Sitophilus oryzae ([3]; dose 5 mg in 1-L container): 7%
- Fatality rate (%) Sitophilus oryzae ([3]; dose 10 mg in 1-L container): 22%
- Fatality rate (%) Sitophilus oryzae ([3]; dose 20 mg in 1-L container): 30%
- Fatality rate (%) Sitophilus oryzae ([3]; dose 30 mg in 1-L container): 100%
- Fatality rate (%) Sitophilus oryzae ([3]; dose 40 mg in 1-L container): 100%
- Fatality rate (%) Solenopsis invicta [4, 8]: 100%
- Fatality rate (%) Solenopsis invicta ([4]; dose 2.5 mg in 1-L container): 32%
- Fatality rate (%) Solenopsis invicta ([4]; dose 5 mg in 1-L container): 55%
- Fatality rate (%) Solenopsis invicta ([4]; dose 10 mg in 1-L container): 100%
- Fatality rate (%) Solenopsis invicta ([4]; dose 20 mg in 1-L container): 100%
- Fatality rate (%) Solenopsis invicta ([4]; dose 30 mg in 1-L container): 100%
- Fatality rate (%) Solenopsis invicta ([4]; dose 40 mg in 1-L container): 100%
- Fatality rate (%) Blattella germanica [5, 8]: 100%
- Fatality rate (%) Blattella germanica ([5]; dose 2.5 mg in 1-L container): 7%
- Fatality rate (%) Blattella germanica ([5]; dose 5 mg in 1-L container): 18%
- Fatality rate (%) Blattella germanica ([5]; dose 10 mg in 1-L container): 38%
- Fatality rate (%) Blattella germanica ([5]; dose 20 mg in 1-L container): 88.89%
- Fatality rate (%) Blattella germanica ([5]; dose 30 mg in 1-L container): 100%
- Fatality rate (%) Blattella germanica ([5]; dose 40 mg in 1-L container): 100%
- Fatality rate (%) Lasioderma serricorne [6, 8]: 100%
- Fatality rate (%) Lasioderma serricorne ([6]; dose 2.5 mg in 1-L container): 5%
- Fatality rate (%) Lasioderma serricorne ([6]; dose 5 mg in 1-L container): 18%
- Fatality rate (%) Lasioderma serricorne ([6]; dose 10 mg in 1-L container): 25%
- Fatality rate (%) Lasioderma serricorne ([6]; dose 20 mg in 1-L container): 42.11%
- Fatality rate (%) Lasioderma serricorne ([6]; dose 30 mg in 1-L container): 100%
- Fatality rate (%) Lasioderma serricorne ([6]; dose 40 mg in 1-L container): 100%
- Fatality rate (%) Tetranychus urticae [7, 8]: 100%
- Fatality rate (%) Tetranychus urticae ([7]; dose 2.5 mg in 1-L container): 45%
- Fatality rate (%) Tetranychus urticae ([7]; dose 5 mg in 1-L container): 72%
- Fatality rate (%) Tetranychus urticae ([7]; dose 10 mg in 1-L container): 100%
- Fatality rate (%) Tetranychus urticae ([7]; dose 20 mg in 1-L container): 100%
- Fatality rate (%) Tetranychus urticae ([7]; dose 30 mg in 1-L container): 100%
- Fatality rate (%) Tetranychus urticae ([7]; dose 40 mg in 1-L container): 100%

Structure (SMILES): CCCCCCCC(C)C [2-methylnonane]
- Fatality rate (%) Anoplolepis longipes [2, 8]: 90%
- Fatality rate (%) Sitophilus oryzae [3, 8]: 100%
- Fatality rate (%) Solenopsis invicta [4, 8]: 100%
- Fatality rate (%) Blattella germanica [5, 8]: 100%
- Fatality rate (%) Lasioderma serricorne [6, 8]: 100%
- Fatality rate (%) Tetranychus urticae [7, 8]: 100%

Structure (SMILES): CCCCCCCCCC [n-decane]
- Fatality rate (%) Anoplolepis longipes [2, 8]: 75%
- Fatality rate (%) Sitophilus oryzae [3, 8]: 100%
- Fatality rate (%) Solenopsis invicta [4, 8]: 100%
- Fatality rate (%) Blattella germanica [5, 8]: 100%
- Fatality rate (%) Lasioderma serricorne [6, 8]: 100%
- Fatality rate (%) Tetranychus urticae [7, 8]: 100%

Structure (SMILES): CCCCCCCCCCCC [n-dodecane]
- Fatality rate (%) Anoplolepis longipes [2, 8]: 25%
- Fatality rate (%) Sitophilus oryzae [3, 8]: 50%
- Fatality rate (%) Solenopsis invicta [4, 8]: 5%
- Fatality rate (%) Blattella germanica [5, 8]: 22.22%
- Fatality rate (%) Lasioderma serricorne [6, 8]: 100%
- Fatality rate (%) Tetranychus urticae [7, 8]: 95%
